# Read-outs that look alike come from different tables or passages of the source.
# Test: Ocular tissue and plasma pharmacokinetics, 15 mg/kg single and BID oral, Dutch Belted rabbits (Example 3/5)
# Format: in vivo
# Protocol: Study design including group designation and dose levels are outlined in Table 4. […] Fifteen Dutch Belted and 5 New Zealand White rabbits were used as un-dosed controls. […] The dose volume was 5 mL/kg/dose for all groups. Safety was assessed with toxicological and ophthalmic examinations including slit lamp biomicroscopy, indirect ophthalmoscopy, rebound tonometry, and ultrasonic corneal pachymetry.
# Analyst® software (Version 1.6.2) was used to capture the LC-MS/MS data and integrate the peak areas. Calibration standards and QCs were prepared in a blank solution of 75%:25% acetonitrile:water (v:v), ranging from 10 ng/mL to 10,000 ng/mL. Matrix matched standard and QC samples were prepared by mixing 2 μL of standard or QC sample above with 18 μL of appropriate ocular tissue or plasma. The final calibration standards ranged from 1 ng/mL to 1000 ng/mL. All plasma, retina, choroid-RPE, optic nerve, and vitreous humor samples were analyzed in a single run. Iris-ciliary body samples were analyzed in two runs due to a need for sample dilution. […] Dilution QCs were prepared at 5000 ng/mL where appropriate. Two sets of standards were used to bracket the analytical run at the beginning and end of the run. Three sets of QCs were included the analytical runs. All concentrations in ocular matrices are reported as ng/g based on the assumed density of 1 g/mL.
# 1, 6, 24, 96, 168, and 240 hours post-dose on Day 15, with the eyes collected at the same time as blood sampling. A single blood sample was taken from Groups 4 and 5 at sacrifice. Plasma, vitreous humor (VH), retina, choroid-retina pigmented epithelium (Choroid-RPE), optic nerve (ON), and iris-ciliary body (I-CB) were analyzed by LC-MS/MS to quantify test article concentrations. The lower limit of quantitation (LLOQ) in plasma and vitreous humor was 1.0 ng/mL. The LLOQ was 6.0 ng/g in retina, Choroid-RPE, and I-CB and the optic nerve LLOQ was 15 ng/g, assuming tissue density of 1 g/mL where relevant.
# Study design including group designation and dose levels are outlined in Table 18.
# [1] = Dutch Belted, rabbit, iris-ciliary body, po, 15 mg/kg, Iris-Ciliary Body, DB rabbit, 15 mg/kg BID, Day 15
# [2] = Dutch Belted, rabbit, iris-ciliary body, po, 15 mg/kg, Iris-Ciliary Body, DB rabbit, 15 mg/kg single dose, Day 1
# [3] = Dutch Belted, rabbit, vitreous humor, po, 15 mg/kg, Vitreous Humor, DB rabbit, 15 mg/kg BID, Day 15
# [4] = Dutch Belted, rabbit, vitreous humor, po, 15 mg/kg, Vitreous Humor, DB rabbit, 15 mg/kg single dose, Day 1
# [5] = plasma, DB rabbit, 15 mg/kg BID, Day 15
# [6] = plasma, DB rabbit, 15 mg/kg single dose, Day 1
# [7] = retina, DB rabbit, 15 mg/kg BID, Day 15
# [8] = retina, DB rabbit, 15 mg/kg single dose, Day 1
smiles,measurement,setting,value
"CC(=O)c1nn(CC(=O)N2C[C@H](F)C[C@H]2C(=O)Nc2cccc(Br)n2)c2ccc(-c3cnc(C)nc3)cc12 [Compound 1, (2S,4R)-1-(2-(3-Acetyl-5-(2-methylpyrimidin-5-yl)-1H-indazol-1-yl)acetyl)-N-(6-bromopyridin-2-yl)-4-fluoropyrrolidine-2-carboxamide]",concentration at 0 h,"Dutch Belted, rabbit, iris-ciliary body, po, 15 mg/kg, DB rabbit, 15 mg/kg BID oral, Day 15, 0 h, read-out: Mean Iris-Ciliary Body concentration",2900 ng/g
same,concentration at 1 h,"Dutch Belted, rabbit, iris-ciliary body, po, 15 mg/kg, DB rabbit, 15 mg/kg BID oral, Day 15, 1 h, read-out: Mean Iris-Ciliary Body concentration",4920 ng/g
same,concentration at 6 h,"Dutch Belted, rabbit, iris-ciliary body, po, 15 mg/kg, DB rabbit, 15 mg/kg BID oral, Day 15, 6 h, read-out: Mean Iris-Ciliary Body concentration",3510 ng/g
same,concentration at 24 h,"Dutch Belted, rabbit, iris-ciliary body, po, 15 mg/kg, DB rabbit, 15 mg/kg BID oral, Day 15, 24 h, read-out: Mean Iris-Ciliary Body concentration",1640 ng/g
same,concentration at 96 h,"Dutch Belted, rabbit, iris-ciliary body, po, 15 mg/kg, DB rabbit, 15 mg/kg BID oral, Day 15, 96 h, read-out: Mean Iris-Ciliary Body concentration",1010 ng/g
same,concentration at 168 h,"Dutch Belted, rabbit, iris-ciliary body, po, 15 mg/kg, DB rabbit, 15 mg/kg BID oral, Day 15, 168 h, read-out: Mean Iris-Ciliary Body concentration",612 ng/g
same,concentration at 240 h,"Dutch Belted, rabbit, iris-ciliary body, po, 15 mg/kg, DB rabbit, 15 mg/kg BID oral, Day 15, 240 h, read-out: Mean Iris-Ciliary Body concentration",408 ng/g
same,concentration at 1 h,"Dutch Belted, rabbit, iris-ciliary body, po, 15 mg/kg, DB rabbit, 15 mg/kg single oral dose, Day 1, 1 h, read-out: Mean Iris-Ciliary Body concentration",1010 ng/g
same,concentration at 6 h,"Dutch Belted, rabbit, iris-ciliary body, po, 15 mg/kg, DB rabbit, 15 mg/kg single oral dose, Day 1, 6 h, read-out: Mean Iris-Ciliary Body concentration",528 ng/g
same,concentration at 24 h,"Dutch Belted, rabbit, iris-ciliary body, po, 15 mg/kg, DB rabbit, 15 mg/kg single oral dose, Day 1, 24 h, read-out: Mean Iris-Ciliary Body concentration",300 ng/g
same,concentration at 96 h,"Dutch Belted, rabbit, iris-ciliary body, po, 15 mg/kg, DB rabbit, 15 mg/kg single oral dose, Day 1, 96 h, read-out: Mean Iris-Ciliary Body concentration",57.9 ng/g
same,concentration at 168 h,"Dutch Belted, rabbit, iris-ciliary body, po, 15 mg/kg, DB rabbit, 15 mg/kg single oral dose, Day 1, 168 h, read-out: Mean Iris-Ciliary Body concentration",27.1 ng/g
same,concentration at 240 h,"Dutch Belted, rabbit, iris-ciliary body, po, 15 mg/kg, DB rabbit, 15 mg/kg single oral dose, Day 1, 240 h, read-out: Mean Iris-Ciliary Body concentration",33.6 ng/g
same,MRT inf,[1],81.5 h
same,MRT last,[1],76.2 h
same,half-life,[1],107 h
same,Cmax,"Dutch Belted, rabbit, iris-ciliary body, po, 15 mg/kg, Iris-Ciliary Body, DB rabbit, 15 mg/kg BID, Day 15, read-out: Cmax",4920 ng/g
same,MRT inf,[2],69 h
same,MRT last,[2],46.2 h
same,half-life,[2],56 h
same,Cmax,"Dutch Belted, rabbit, iris-ciliary body, po, 15 mg/kg, Iris-Ciliary Body, DB rabbit, 15 mg/kg single dose, Day 1, read-out: Cmax",1010 ng/g
same,concentration at 0 h,"Dutch Belted, rabbit, plasma, po, 15 mg/kg, DB rabbit, 15 mg/kg BID oral, Day 15, 0 h, read-out: Mean plasma concentration",55.2 ng/mL
same,concentration at 1 h,"Dutch Belted, rabbit, plasma, po, 15 mg/kg, DB rabbit, 15 mg/kg BID oral, Day 15, 1 h, read-out: Mean plasma concentration",845 ng/mL
same,concentration at 6 h,"Dutch Belted, rabbit, plasma, po, 15 mg/kg, DB rabbit, 15 mg/kg BID oral, Day 15, 6 h, read-out: Mean plasma concentration",92.2 ng/mL
same,concentration at 24 h,"Dutch Belted, rabbit, plasma, po, 15 mg/kg, DB rabbit, 15 mg/kg BID oral, Day 15, 24 h, read-out: Mean plasma concentration",5.6 ng/mL
same,concentration at 96 h,"Dutch Belted, rabbit, plasma, po, 15 mg/kg, DB rabbit, 15 mg/kg BID oral, Day 15, 96 h, read-out: Mean plasma concentration",3.19 ng/mL
same,concentration at 1 h,"Dutch Belted, rabbit, plasma, po, 15 mg/kg, DB rabbit, 15 mg/kg single oral dose, Day 1, 1 h, read-out: Mean plasma concentration",318 ng/mL
same,concentration at 6 h,"Dutch Belted, rabbit, plasma, po, 15 mg/kg, DB rabbit, 15 mg/kg single oral dose, Day 1, 6 h, read-out: Mean plasma concentration",33.7 ng/mL
same,concentration at 24 h,"Dutch Belted, rabbit, plasma, po, 15 mg/kg, DB rabbit, 15 mg/kg single oral dose, Day 1, 24 h, read-out: Mean plasma concentration",25.4 ng/mL
same,concentration at 1 h,"Dutch Belted, rabbit, retina, oral, 15 mg/kg, DB rabbits, Day 1, 15 mg/kg single dose, 1 hr, read-out: Mean Retina Concentration",145 ng/g
same,concentration at 6 h,"Dutch Belted, rabbit, retina, oral, 15 mg/kg, DB rabbits, Day 1, 15 mg/kg single dose, 6 hr, read-out: Mean Retina Concentration",29.6 ng/g
same,concentration at 24 h,"Dutch Belted, rabbit, retina, oral, 15 mg/kg, DB rabbits, Day 1, 15 mg/kg single dose, 24 hr, read-out: Mean Retina Concentration",24.7 ng/g
same,concentration at 0 h,"Dutch Belted, rabbit, retina, oral, 15 mg/kg, DB rabbits, Day 15, 15 mg/kg BID, 0 hr, read-out: Mean Retina Concentration",114 ng/g
same,concentration at 1 h,"Dutch Belted, rabbit, retina, oral, 15 mg/kg, DB rabbits, Day 15, 15 mg/kg BID, 1 hr, read-out: Mean Retina Concentration",576 ng/g
same,concentration at 6 h,"Dutch Belted, rabbit, retina, oral, 15 mg/kg, DB rabbits, Day 15, 15 mg/kg BID, 6 hr, read-out: Mean Retina Concentration",237 ng/g
same,concentration at 24 h,"Dutch Belted, rabbit, retina, oral, 15 mg/kg, DB rabbits, Day 15, 15 mg/kg BID, 24 hr, read-out: Mean Retina Concentration",74.3 ng/g
same,concentration at 96 h,"Dutch Belted, rabbit, retina, oral, 15 mg/kg, DB rabbits, Day 15, 15 mg/kg BID, 96 hr, read-out: Mean Retina Concentration",28.1 ng/g
same,concentration at 168 h,"Dutch Belted, rabbit, retina, oral, 15 mg/kg, DB rabbits, Day 15, 15 mg/kg BID, 168 hr, read-out: Mean Retina Concentration",36.5 ng/g
same,concentration at 240 h,"Dutch Belted, rabbit, retina, oral, 15 mg/kg, DB rabbits, Day 15, 15 mg/kg BID, 240 hr, read-out: Mean Retina Concentration",25.3 ng/g
same,concentration at 0 h,"Dutch Belted, rabbit, retina, po, 15 mg/kg, DB rabbit, 15 mg/kg BID oral, Day 15, 0 h, read-out: Mean retina concentration",114 ng/g
same,concentration at 1 h,"Dutch Belted, rabbit, retina, po, 15 mg/kg, DB rabbit, 15 mg/kg BID oral, Day 15, 1 h, read-out: Mean retina concentration",576 ng/g
same,concentration at 6 h,"Dutch Belted, rabbit, retina, po, 15 mg/kg, DB rabbit, 15 mg/kg BID oral, Day 15, 6 h, read-out: Mean retina concentration",237 ng/g
same,concentration at 24 h,"Dutch Belted, rabbit, retina, po, 15 mg/kg, DB rabbit, 15 mg/kg BID oral, Day 15, 24 h, read-out: Mean retina concentration",74.3 ng/g
same,concentration at 96 h,"Dutch Belted, rabbit, retina, po, 15 mg/kg, DB rabbit, 15 mg/kg BID oral, Day 15, 96 h, read-out: Mean retina concentration",28.1 ng/g
same,concentration at 168 h,"Dutch Belted, rabbit, retina, po, 15 mg/kg, DB rabbit, 15 mg/kg BID oral, Day 15, 168 h, read-out: Mean retina concentration",36.5 ng/g
same,concentration at 240 h,"Dutch Belted, rabbit, retina, po, 15 mg/kg, DB rabbit, 15 mg/kg BID oral, Day 15, 240 h, read-out: Mean retina concentration",25.3 ng/g
same,concentration at 1 h,"Dutch Belted, rabbit, retina, po, 15 mg/kg, DB rabbit, 15 mg/kg single oral dose, Day 1, 1 h, read-out: Mean retina concentration",145 ng/g
same,concentration at 6 h,"Dutch Belted, rabbit, retina, po, 15 mg/kg, DB rabbit, 15 mg/kg single oral dose, Day 1, 6 h, read-out: Mean retina concentration",29.6 ng/g
same,concentration at 24 h,"Dutch Belted, rabbit, retina, po, 15 mg/kg, DB rabbit, 15 mg/kg single oral dose, Day 1, 24 h, read-out: Mean retina concentration",24.7 ng/g
same,MRT last,"Dutch Belted, rabbit, retina, po, 15 mg/kg, retina, DB rabbit, 15 mg/kg BID, Day 15",71 h
same,concentration at 0 h,"Dutch Belted, rabbit, vitreous humor, po, 15 mg/kg, DB rabbit, 15 mg/kg BID oral, Day 15, 0 h, read-out: Mean Vitreous Humor concentration",3.27 ng/mL
same,concentration at 1 h,"Dutch Belted, rabbit, vitreous humor, po, 15 mg/kg, DB rabbit, 15 mg/kg BID oral, Day 15, 1 h, read-out: Mean Vitreous Humor concentration",15.4 ng/mL
same,concentration at 6 h,"Dutch Belted, rabbit, vitreous humor, po, 15 mg/kg, DB rabbit, 15 mg/kg BID oral, Day 15, 6 h, read-out: Mean Vitreous Humor concentration",6.45 ng/mL
same,concentration at 1 h,"Dutch Belted, rabbit, vitreous humor, po, 15 mg/kg, DB rabbit, 15 mg/kg single oral dose, Day 1, 1 h, read-out: Mean Vitreous Humor concentration",7.26 ng/mL
same,concentration at 6 h,"Dutch Belted, rabbit, vitreous humor, po, 15 mg/kg, DB rabbit, 15 mg/kg single oral dose, Day 1, 6 h, read-out: Mean Vitreous Humor concentration",3.66 ng/mL
same,AUC(0-t),[3],64 ng·h/mL
same,MRT last,[3],2.23 h
same,Cmax,"Dutch Belted, rabbit, vitreous humor, po, 15 mg/kg, Vitreous Humor, DB rabbit, 15 mg/kg BID, Day 15, read-out: Cmax",15.4 ng/mL
same,AUC(0-t),[4],30.9 ng·h/mL
same,MRT last,[4],2.48 h
same,Cmax,"Dutch Belted, rabbit, vitreous humor, po, 15 mg/kg, Vitreous Humor, DB rabbit, 15 mg/kg single dose, Day 1, read-out: Cmax",7.26 ng/mL
same,Tlast,"Iris-Ciliary Body, DB rabbit, 15 mg/kg BID, Day 15",240 h
same,Tlast,"Iris-Ciliary Body, DB rabbit, 15 mg/kg single dose, Day 1",240 h
same,Tlast,"Vitreous Humor, DB rabbit, 15 mg/kg BID, Day 15",6 h
same,Tlast,"Vitreous Humor, DB rabbit, 15 mg/kg single dose, Day 1",6 h
same,AUClast,[5],3990 ng·h/mL
same,Cmax,[5],845 ng/mL
same,MRTlast,[5],6.51 h
same,Tlast,[5],96 h
same,AUClast,[6],1570 ng·h/mL
same,Cmax,[6],318 ng/mL
same,MRTlast,[6],5.58 h
same,Tlast,[6],24 h
same,C-RPE drug concentration at least 10 days following the last oral administration,"rabbit, 15 mg/kg BID",340 ng/mL
same,Cmax,[7],576 ng/m
same,Tlast,[7],240 h
same,Cmax,[8],145 ng/m
same,MRTlast,[8],7.83 h
same,Tlast,[8],24 h
